# According to patent US20170058349A1, “METHODS FOR MANAGING CARE OF PATIENTS PREDISPOSED TO PROGRESSIVE MITRAL VALVE DISEASES” (The Children's Hospital of Philadelphia, priority 2014, published 2017):
# Assays:
# human MVICs = test: MVIC activation in vitro (SMA expression after 5HT stimulation); format: cell-based; conditions: for VIC activation associated with 5HTR activation: human MVICs in vitro, antagonists of 5HTR2A, 2B and SERT; for SMA expression on 5HT stimulation: 5HT 10 nM
# Description: MVICs isolated from healthy controls and patients with LL, LS, SS gene polymorphisms were treated with […] 5HT for 6 days in the presence or absence of a combination of 5HT2A antagonist Ketanserin, 5HT2B antagonist SDZ, and SERT antagonist Fluoxetine. RNA was isolated and tested for SMA expression as a marker of MVIC activation.
# MVICs were isolated form patients with LL, LS, or SS genotype and controls (N=5/group) and exposed to 5HT stimulation (10 nM) to measure MVICs activation by alpha smooth muscle actin (SMA) as previously described by Rachana et al. (Journal of cellular physiology 227(6): 2595-604, November 2011. PMCID: PMC3288540) and Poggio et al. (Cardiovascular research 98(3): 402-10, June 2013. PMCID: PMC3656614). A combination of 5HT2A, 2B and SERT antagonists was used to inhibit 5HT stimulation in the three different genotypes (LL, LS, SS) with 10 μM ketanserin, 1 μM SDZ SER-082, and 1 μM Fluoxitine. (FIG. 4). RNA extract was collected to detect SMA expression.
# C57BL/6J mice = test: Chronic angiotensin II infusion, remodeling of the mitral valve tissue in mice; format: in vivo; conditions: 28 days chronic infusion; for ECM remodeling of MV leaflets / 5HTR2A, 5HTR2B and SERT expression in MV leaflets: AngII vs. saline; for ECM remodeling of MV leaflets: histology; for 5HTR2A, 5HTR2B and SERT expression in MV leaflets: immunohistochemistry
# Source text: (A) Representative H&E staining of cross section of mice hearts harvested 28 days after saline or AngII chronic infusion. (B) Modified Movat Pentachrome staining of MV leaflets harvested 28 days after saline or AngII chronic infusion (Magnification 10× and 43×). (C) and (D) Immunohistochemistry staining of murine MV leaflets using anti-5HTR2A and anti-5HTR2B antibodies, respectively.
# We have recently reported that reactive oxygen species (ROS) accumulation is leading aortic VICs activation ex vivo and in vitro with results showing that adenoviral delivery of antioxidant enzymes ameliorates aortic VICs activation. We therefore used our murine model based on chronic AngII infusion to reproduce ROS accumulation in the cardiac tissue (Branchetti et al., Cardiovasc Res. 2013; 100(2):316-324) to test whether we could provoke MV remodeling.
molecule,measurement,setting,value
O=C(c1ccc(F)cc1)C1CCN(CCn2c(=O)[nH]c3ccccc3c2=O)CC1 [Ketanserin],VIC activation associated with 5HTR activation,human MVICs,partially abrogate this effect
"Angiotensin II (DRVYIHPF; Angiotensin-2; UniProt P11859 25-32, looked up) [AngII, chronically infused to induce ROS accumulation and MV remodeling in mice]",mitral valve cusp thickness,"C57BL/6J mice; AngII treated vs. saline infused mice, p<0.01",increased
same,ECM remodeling of MV leaflets,C57BL/6J mice,significant rearrangement of the ECM
same,ECM remodeling of MV leaflets,C57BL/6J mice; listed as Angiotensin II,ECM remodeling
same,"5HTR2A, 5HTR2B and SERT expression in MV leaflets",C57BL/6J mice,increased 5HTR2A and 2B and SERT
same,"5HTR2A, 5HTR2B and SERT expression in MV leaflets",C57BL/6J mice; listed as Angiotensin II,increased 5HTR-2B/SERT expressions
"NCCc1c[nH]c2ccc(O)cc12 [5HT, serotonin]",SMA expression on 5HT stimulation,human MVICs; MVICs from patients with LL genotype,significant upregulation of SMA
same,SMA expression on 5HT stimulation,human MVICs; MVICs from patients with SS and LS genotype,not responsive
CNCCC(Oc1ccc(C(F)(F)F)cc1)c1ccccc1 (stereo not shown) [Fluoxetine],VIC activation associated with 5HTR activation,human MVICs,partially abrogate this effect
"CN1CC[C@@H]2CN3CCc4cccc(c43)[C@@H]2C1 [SDZ, SDZ SER-082]",VIC activation associated with 5HTR activation,human MVICs,partially abrogate this effect
